Where a name gives a salt, the structure may show the parent alone.
Tests used:
Bcl-2 protein = Bcl-2 protein (histag-Bcl-2, UniProtKB P10415) (Homo sapiens (Human), UniProt P10415); assay: Inhibition of Bcl-2 by the fluorescence polarisation technique; assay type: binding; conditions: for IC50: fluorescence polarisation test, method A, or method B where underlined (underlining not visible), read-out: IC50 (nM) Bcl-2 FP
Excerpt: Inhibition of Bcl-2 by the fluorescence polarisation technique

[1] = system: RS4;11 leukaemia tumour line; assay: In vitro cytotoxicity, Microculture Tetrazolium Assay (MTT); assay type: cell-based; conditions: Homo sapiens; RS4;11 cells, 48 hours exposure
Method: The cytotoxicity studies were carried out on the RS4;11 leukaemia tumour line.
The cells are distributed onto microplates and exposed to the test compounds for 48 hours. The cell viability is then quantified by a colorimetric assay, the Microculture Tetrazolium Assay (Cancer Res., 1987, 47, 939-942).

Chain of Bcl-2 protein (P10415 whole entry): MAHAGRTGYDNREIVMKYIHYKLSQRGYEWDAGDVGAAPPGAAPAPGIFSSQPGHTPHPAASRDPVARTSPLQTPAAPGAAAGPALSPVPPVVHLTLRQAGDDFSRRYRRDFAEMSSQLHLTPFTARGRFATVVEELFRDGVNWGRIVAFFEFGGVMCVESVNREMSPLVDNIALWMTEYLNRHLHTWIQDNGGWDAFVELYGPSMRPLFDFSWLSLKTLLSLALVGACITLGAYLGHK

Row | Structure (SMILES) | IC50 (Bcl-2 protein) | IC50 [1] | inhibition at 10 µM (Bcl-2 protein; read-out: percentage fluorescence polarisation inhibition (Bcl-2 FP))
1 | COc1cc(-n2cc(C(=O)N(c3ccccc3)C3CCCCC3)c3ccccc32)c(C(=O)N2Cc3ccccc3C[C@H]2CN2CCN(C)CC2)cc1O [Example 187, N-Cyclohexyl-1-{4-hydroxy-5-methoxy-2-[(3S)-3-[(4-methylpiperazin-1-yl)methyl]-1,2,3,4-tetrahydroisoquinoline-2-carbonyl}phenyl]-N-phenyl-1H-indole-3-carboxamide dihydrochloride] | 21.6 nM | 1990 nM | 
2 | Cc1ccc(N(C(=O)c2cn(-c3cc4c(cc3C(=O)N3Cc5ccccc5C[C@H]3CN3CCN(C)CC3)OCO4)c3ccccc23)C2CCNCC2)cc1 [Example 98, N-(4-Methylphenyl)-1-(6-{[(3S)-3-[(4-methylpiperazin-1-yl)methyl]-3,4-dihydroisoquinolin-2(1H)-yl]carbonyl}-1,3-benzodioxol-5-yl)-N-(piperidin-4-yl)-1H-indole-3-carboxamide bis-hydrochloride] |  | 1880 nM | 45.1%
3 | NC[C@@H]1Cc2ccccc2CN1C(=O)c1cc2c(cc1-n1cc(C(=O)N(c3ccccc3)c3ccc(O)cc3)c3ccccc31)OCO2 [Example 153, 1-{6-[(3S)-3-(Aminomethyl)-1,2,3,4-tetrahydroisoquinoline-2-carbonyl]-2H-1,3-benzodioxol-5-yl}-N-(4-hydroxyphenyl)-N-phenyl-1H-indole-3-carboxamide] | 286 nM | 237 nM | 
4 | Cc1cc(C(=O)N(c2ccccc2)c2ccc(O)cc2)cn1-c1cc(Cl)c(F)cc1C(=O)N1Cc2ccccc2C[C@H]1CN1CCN(C)CC1 [Example 28, 1-(5-Chloro-4-fluoro-2-{[(3S)-3-[(4-methylpiperazin-1-yl)methyl]-3,4-dihydroisoquinolin-2(1H)-yl]carbonyl}phenyl)-N-(4-hydroxyphenyl)-5-methyl-N-phenyl-1H-pyrrole-3-carboxamide] | 8 nM | 378 nM | 
5 | Cc1ccc(N(C(=O)c2cn(-c3cc(Cl)ccc3C(=O)N3Cc4ccccc4C[C@H]3CN3CCN(C)CC3)c3ccccc23)c2ccc(O)cc2)cc1 [Example 74, 1-(5-Chloro-2-{[(3S)-3-[(4-methylpiperazin-1-yl)methyl]-3,4-dihydroisoquinolin-2(1H)-yl]carbonyl}phenyl)-N-(4-hydroxyphenyl)-N-(4-methylphenyl)-1H-indole-3-carboxamide] | 4.2 nM | 162 nM | 
6 | CCCCN(CCCC)C(=O)c1cn(-c2ccc(NC(=O)COc3ccccc3)cc2C(=O)N2Cc3ccccc3C[C@H]2CN2CCN(C)CC2)c2ccccc12 [Example 200, N,N-Dibutyl-1-{2-[(3S)-3-[(4-methylpiperazin-1-yl)methyl]-1,2,3,4-tetrahydroisoquinoline-2-carbonyl]-4-(2-phenoxyacetamido)phenyl}-1H-indole-3-carboxamide] | 155 nM | 2080 nM | 
7 | CC(C)c1ccc(N(C(=O)c2cn(-c3cc4c(cc3C(=O)N3Cc5ccccc5C[C@H]3CN3CCN(C)CC3)OCO4)c3ccccc23)c2ccc(O)c(Cl)c2)cc1 [Example 64, N-(3-Chloro-4-hydroxyphenyl)-1-(6-{[(3S)-3-[(4-methylpiperazin-1-yl)methyl]-3,4-dihydroisoquinolin-2(1H)-yl]carbonyl}-1,3-benzodioxol-5-yl)-N-[4-(propan-2-yl)phenyl]-1H-indole-3-carboxamide hydrochloride] | 296 nM | 1360 nM | 
8 | CN1CCN(C[C@@H]2Cc3ccccc3CN2C(=O)c2cc3c(cc2-n2cc(C(=O)N(c4ccc(O)cc4)c4ccc5c(ccn5C)c4)c4ccccc42)OCO3)CC1 [Example 45, N-(4-Hydroxyphenyl)-N-(1-methyl-1H-indol-5-yl)-1-(6-{[(3S)-3-[(4-methylpiperazin-1-yl)methyl]-3,4-dihydroisoquinolin-2(1H)-yl]carbonyl}-1,3-benzodioxol-5-yl)-1H-indole-3-carboxamide] | 6.7 nM | 36.5 nM | 
9 | COc1cc(-n2cc(C(=O)N(c3ccc(O)cc3)C3CCCCC3)c3ccccc32)c(C(=O)N2Cc3ccccc3C[C@H]2CN2CCN(C)CC2)cc1O [Example 204, N-Cyclohexyl-1-{4-hydroxy-5-methoxy-2-[(3S)-3-[(4-methylpiperazin-1-yl)methyl]-1,2,3,4-tetrahydroisoquinoline-2-carbonyl]phenyl}-N-(4-hydroxyphenyl)-1H-indole-3-carboxamide dihydrochloride] | 4.7 nM | 780 nM | 
10 | O=C(c1cn(-c2cc3c(cc2C(=O)N2Cc4ccccc4C[C@H]2CN2CCCCC2)OCO3)c2ccccc12)N(c1ccccc1)c1ccc(O)cc1 [Example 174, N-(4-Hydroxyphenyl)-N-phenyl-1-{6-[(3S)-3-(piperidin-1-ylmethyl)-1,2,3,4-tetrahydroisoquinoline-2-carbonyl]-2H-1,3-benzodioxol-5-yl}-1H-indole-3-carboxamide] | 41.2 nM | 402 nM | 
11 | Cc1cc(C(=O)N(c2ccc(O)cc2)c2ccc3[nH]ccc3c2)cn1-c1cc(Br)ccc1C(=O)N1Cc2ccccc2C[C@H]1CN1CCN(C2CCCC2)CC1 [Example 80, 1-(5-Bromo-2-{[(3S)-3-[(4-cyclopentylpiperazin-1-yl)methyl]-3,4-dihydroisoquinolin-2(1H)-yl]carbonyl}phenyl)-N-(4-hydroxyphenyl)-N-(1H-indol-5-yl)-5-methyl-1H-pyrrole-3-carboxamide] | 6.8 nM | 120 nM | 
12 | Cc1cc(C(=O)N(c2ccccc2)c2ccc(O)cc2)cn1-c1cc2c(cc1C(=O)N1Cc3ccccc3C[C@H]1CN1CCOCC1)CCC2 [Example 107, N-(4-Hydroxyphenyl)-5-methyl-1-(6-{[(3S)-3-(morpholin-4-ylmethyl)-3,4-dihydroisoquinolin-2(1H)-yl]carbonyl}-2,3-dihydro-1H-inden-5-yl)-N-phenyl-1H-pyrrole-3-carboxamide hydrochloride] | 44 nM | 150 nM | 
13 | NC[C@@H]1Cc2ccccc2CN1C(=O)c1cc(NC(=O)CSc2ccccc2)ccc1-n1cc(C(=O)N(c2ccccc2)c2ccc(O)cc2)c2ccccc21 [Example 157, 1-{2-[(3S)-3-(Aminomethyl)-1,2,3,4-tetrahydroisoquinoline-2-carbonyl]-4-[2-(phenylsulphanyl)acetamido]phenyl}-N-(4-hydroxyphenyl)-N-phenyl-1H-indole-3-carboxamide] | 16.1 nM | 487 nM | 
14 | Cc1cc(C(=O)N(c2ccc(O)cc2)c2ccc3c(ccn3C)c2)cn1-c1cc(Cl)ccc1C(=O)N1Cc2ccccc2C[C@H]1CN(C)C [Example 95, 1-(5-Chloro-2-{[(3S)-3-[(dimethylamino)methyl]-3,4-dihydroisoquinolin-2(1H)-yl]carbonyl}phenyl)-N-(4-hydroxyphenyl)-5-methyl-N-(1-methyl-1H-indol-5-yl)-1H-pyrrole-3-carboxamide hydrochloride] | 6.4 nM | 264 nM | 
15 | CN1CCN(C[C@@H]2Cc3ccccc3CN2C(=O)c2cc3c(cc2-n2cc(C(=O)N(c4ccc(O)cc4)c4ccc5c(c4)CCN5)c4ccccc42)OCO3)CC1 [Example 47, N-(2,3-Dihydro-1H-indol-5-yl)-N-(4-hydroxyphenyl)-1-(6-{[(3S)-3-[(4-methylpiperazin-1-yl)methyl]-3,4-dihydroisoquinolin-2(1H)-yl]carbonyl}-1,3-benzodioxol-5-yl)-1H-indole-3-carboxamide] | 9.2 nM | 50.3 nM | 
16 | CN(C)C[C@@H]1Cc2ccccc2CN1C(=O)c1ccc(Cl)cc1-n1cc(C(=O)N(c2ccccc2)c2ccc(O)cc2)c2ccccc21 [Example 179, 1-{5-Chloro-2-[(3S)-3-[(dimethylamino)methyl]-1,2,3,4-tetrahydroisoquinoline-2-carbonyl]phenyl}-N-(4-hydroxyphenyl)-N-phenyl-1H-indole-3-carboxamide hydrochloride] | 18.1 nM | 886 nM | 
17 | CCCCN(C(=O)c1cn(-c2cc3c(cc2C(=O)N2Cc4ccccc4C[C@H]2CN2CCN(C)CC2)OCO3)c2ccccc12)c1ccc(O)cc1 [Example 33, N-Butyl-N-(4-hydroxyphenyl)-1-(6-{[(3S)-3-[(4-methylpiperazin-1-yl)methyl]-3,4-dihydroisoquinolin-2(1H)-yl]carbonyl}-1,3-benzodioxol-5-yl)-1H-indole-3-carboxamide] | 4.4 nM | 199 nM | 
18 | Cc1cc(C(=O)N(c2ccc(O)cc2)c2ccc3[nH]ccc3c2)cn1-c1cc(Br)ccc1C(=O)N1Cc2ccccc2C[C@H]1CN1CCCC1 [Example 104, 1-(5-Bromo-2-{[(3S)-3-(pyrrolidin-1-ylmethyl)-3,4-dihydroisoquinolin-2(1H)-yl]carbonyl}phenyl)-N-(4-hydroxyphenyl)-N-(1H-indol-5-yl)-5-methyl-1H-pyrrole-3-carboxamide] | 18.8 nM | 383 nM | 
19 | Cc1cc(C(=O)N(c2ccccc2)c2ccc(O)cc2)cn1-c1cccc(Cl)c1C(=O)N1Cc2ccccc2C[C@H]1CN(C)C [Example 18, 1-(3-Chloro-2-{[(3S)-3-[(dimethylamino)methyl]-3,4-dihydroisoquinolin-2(1H)-yl]carbonyl}phenyl)-N-(4-hydroxyphenyl)-5-methyl-N-phenyl-1H-pyrrole-3-carboxamide] | 44.6 nM | 1130 nM | 
20 | CN1CCN(C[C@@H]2Cc3ccccc3CN2C(=O)c2ccc(Br)cc2-n2cc(C(=O)N(c3ccc(O)cc3)c3ccc(Cl)cc3)c3ccccc32)CC1 [Example 59, 1-(5-Bromo-2-{[(3S)-3-[(4-methylpiperazin-1-yl)methyl]-3,4-dihydroisoquinolin-2(1H)-yl]carbonyl}phenyl)-N-(4-chlorophenyl)-N-(4-hydroxyphenyl)-1H-indole-3-carboxamide] | 19.2 nM | 206 nM | 
21 | NC[C@@H]1Cc2ccccc2CN1C(=O)c1ccc(Cl)cc1-n1cc(C(=O)N(c2ccccc2)c2ccc(O)cc2)c2ccccc21 [Example 156, 1-{2-[(3S)-3-(Aminomethyl)-1,2,3,4-tetrahydroisoquinoline-2-carbonyl]-5-chlorophenyl}-N-(4-hydroxyphenyl)-N-phenyl-1H-indole-3-carboxamide] | 11.7 nM | 450 nM | 
